Data: patent publication US7842324B2 (Senomyx, Inc., priority 2005, dated 2010)
Like-named read-outs stand apart in the source and are kept apart here.

Molecular target: T1, hT1R2/hT1R3 sweet receptor expressed in HEK293 cell line (Homo sapiens, UniProt Q7RTX0+Q8TE23)
T1 construct: expressed in transfected cells; host or cells: HEK293 derivative stably expressing Gα15 and hT1R2/hT1R3, clone S-9
T1 sequence (Q8TE23 20-839): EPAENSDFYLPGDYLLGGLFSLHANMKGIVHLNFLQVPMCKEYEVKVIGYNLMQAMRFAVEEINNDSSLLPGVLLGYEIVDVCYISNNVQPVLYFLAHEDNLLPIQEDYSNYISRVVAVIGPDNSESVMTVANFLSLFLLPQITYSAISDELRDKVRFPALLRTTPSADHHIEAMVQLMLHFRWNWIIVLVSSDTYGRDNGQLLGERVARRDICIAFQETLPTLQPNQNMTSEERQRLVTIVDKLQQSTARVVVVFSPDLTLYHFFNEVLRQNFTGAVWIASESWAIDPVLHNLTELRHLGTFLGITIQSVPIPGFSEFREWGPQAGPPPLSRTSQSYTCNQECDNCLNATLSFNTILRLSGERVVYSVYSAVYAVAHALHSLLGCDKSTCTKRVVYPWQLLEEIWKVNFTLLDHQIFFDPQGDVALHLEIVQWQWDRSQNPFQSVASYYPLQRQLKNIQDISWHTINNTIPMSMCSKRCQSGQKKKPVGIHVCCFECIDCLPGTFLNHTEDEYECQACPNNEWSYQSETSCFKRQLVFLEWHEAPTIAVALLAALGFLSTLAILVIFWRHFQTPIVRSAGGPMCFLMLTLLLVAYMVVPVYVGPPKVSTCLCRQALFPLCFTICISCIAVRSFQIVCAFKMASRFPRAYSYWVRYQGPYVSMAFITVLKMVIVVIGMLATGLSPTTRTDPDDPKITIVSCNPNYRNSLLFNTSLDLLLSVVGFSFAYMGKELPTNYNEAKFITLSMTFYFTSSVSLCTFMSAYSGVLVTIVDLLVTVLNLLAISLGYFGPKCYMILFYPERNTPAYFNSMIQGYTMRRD
T1 sequence (Q7RTX0 21-852): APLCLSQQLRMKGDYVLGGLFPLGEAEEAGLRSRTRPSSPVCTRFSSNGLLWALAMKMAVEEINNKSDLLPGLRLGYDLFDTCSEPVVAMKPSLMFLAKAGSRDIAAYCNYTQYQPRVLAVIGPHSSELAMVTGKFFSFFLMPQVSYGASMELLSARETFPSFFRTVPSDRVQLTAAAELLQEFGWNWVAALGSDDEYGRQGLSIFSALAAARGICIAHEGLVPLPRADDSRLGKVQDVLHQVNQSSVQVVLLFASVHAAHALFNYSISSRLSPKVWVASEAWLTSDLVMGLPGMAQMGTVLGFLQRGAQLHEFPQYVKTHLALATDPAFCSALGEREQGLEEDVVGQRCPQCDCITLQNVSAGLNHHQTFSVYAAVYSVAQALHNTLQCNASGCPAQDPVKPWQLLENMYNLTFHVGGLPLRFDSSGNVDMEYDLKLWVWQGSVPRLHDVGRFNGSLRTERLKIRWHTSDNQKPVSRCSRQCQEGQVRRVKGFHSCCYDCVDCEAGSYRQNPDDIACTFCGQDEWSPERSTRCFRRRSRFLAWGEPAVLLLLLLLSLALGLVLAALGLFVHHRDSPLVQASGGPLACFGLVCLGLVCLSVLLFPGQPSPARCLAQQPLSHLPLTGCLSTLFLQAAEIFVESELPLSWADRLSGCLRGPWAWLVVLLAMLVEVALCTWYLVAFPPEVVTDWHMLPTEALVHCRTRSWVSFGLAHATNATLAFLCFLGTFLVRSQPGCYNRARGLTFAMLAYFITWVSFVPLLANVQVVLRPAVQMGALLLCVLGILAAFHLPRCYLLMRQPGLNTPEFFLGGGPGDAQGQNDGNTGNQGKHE
Experiment: In vitro hT1R2/hT1R3-HEK293 taste receptor activation assay (FLIPR)
Assay type: cell-based
Description: An HEK293 cell line derivative (Chandrashekar et al., Cell (2000) 100:703-711) that stably expresses Gα15 and hT1R2/hT1R3 (Li et al., Proc Natl Acad Sci USA (2002) 99:4692-4696), see also PCT Publication No. WO 03/001876 A2) was used to identify compounds with sweet taste enhancing properties.
Compounds covered in this document were initially selected based on their activity on the hT1R2/hT1R3-HEK293-Gα15 cell line (Li et al. vide supra). Activity was determined using an automated fluorometric imaging assay on a FLIPR instrument ([…], Molecular Devices, Sunnyvale, Calif.) (designated FLIPR assay). Cells from one clone (designated S-9 cells) were seeded into 384-well plates (at approximately 50,000 cells per well) in a medium containing DMEM Low Glucose (Invitrogen, Carlsbad, Calif.), 10% dialyzed fetal bovine serum (Invitrogen, Carlsbad, Calif.), 100 Units/ml Penicillin G, and 100 μg/ml Streptomycin (Invitrogen, Carlsbad, Calif.) (Li et al. vide supra) see also PCT Publication No. WO 03/001876 A2). S-9 cells were grown for 24 hours at 37° C. S-9 cells were then loaded with the calcium dye Fluo-3AM (Molecular Probes, Eugene, Oreg.), 4 μM in a phosphate buffered saline (D-PBS) (Invitrogen, Carlsbad, Calif.), for 1 hour at room temperature. After replacement with 25 μl D-PBS, stimulation was performed in the FLIPR instrument and at room temperature by the addition of 25 μl D-PBS supplemented with different stimuli at concentrations corresponding to twice the desired final level. Receptor activity was quantified by determining the maximal fluorescence increases (using a 480 nm excitation and 535 nm emission) after normalization to basal fluorescence intensity measured before stimulation.
For dose-responses analysis, stimuli were presented in duplicates at 10 different concentrations ranging from 60 nM to 30 μM. Activities were normalized to the response obtained with 400 mM D-fructose, a concentration that elicits maximum receptor response. EC50s were determined using a non-linear regression algorithm (using a Senomyx, Inc. software), where the Hill slope, bottom asymptotes and top asymptotes were allow to vary. Identical results were obtained when analyzing the dose-response data using commercially available software for non-linear regression analysis such as GraphPad PRISM (San Diego, Calif.).

[1] = read-out: EC50 for activation of a hT1R2/hT1R3 sweet receptor expressed in HEK293 cell line

Compound | EC50 (Table A, read-out: SWEET EC50) [µM] | EC50 [1] [µM]
COCc1cccc(-c2ccc(C(C)(C)C(=O)NC(C)C)cc2)c1 [Compound A57] | 0.92 | 
CC(C)CNC(=O)C(C)(C)c1ccc(-c2ccccc2CO)cc1 [Compound 36, 2-(2′-(hydroxymethyl)biphenyl-4-yl)-N-isobutyl-2-methylpropanamide] |  | 1.05
COc1ccc(-c2ccc(C(C)(C)C(=O)NCC(C)C)cc2)c(OC)c1 [Compound A19] | 7.1 | 
CCCNC(=O)C(C)(C)c1ccc(-c2cncc(C#N)c2)cc1 [Compound A90] | 0.48 | 
CC[C@@H](C)NC(=O)C(C)(C)c1ccc(-c2cccc(COC)c2)cc1 [Compound A53] | 0.55 | 
CC(C)CNC(=O)C(C)(C)c1ccc(-c2cccc(C#N)c2)cc1 [Compound 9, 2-(3′-cyanobiphenyl-4-yl)-N-isobutyl-2-methylpropanamide] |  | 0.2
CC(C)CNC(=O)Cc1ccc(-c2ccccc2)cc1 [Compound A39] | 1.54 | 
CC(C)[C@@H](C)NC(=O)C(C)(C)c1ccc(-c2cncc(C#N)c2)cc1 [Compound 22] |  | 0.14
CC(C)CNC(=O)C(C)(C)c1ccc(-c2ccccc2)c(O)c1 [Compound A67] | 1.42 | 
CC[C@@H](C)NC(=O)C(C)(C)c1ccc(-c2cncc(C#N)n2)cc1 [Compound 47, (R)-N-sec-butyl-2-(4-(6-cyanopyrazin-2-yl)phenyl)-2-methylpropanamide] |  | 0.14
CCOc1cncc(-c2ccc(C(C)(C)C(=O)NCC(C)C)cc2)c1 [Compound A68] | 1.59 | 
Cc1cscc1-c1ccc(C(C)(C)C(=O)NCC(C)C)cn1 [Compound A59] | 1.05 | 
CC(C)(C(=O)NCC1CC1)c1ccc(-c2cncc(C#N)n2)cc1 [Compound A45] | 0.27 | 
CC(C)CNC(=O)C(C)(C)c1ccc(-c2cccc(C=O)c2)cc1 [Compound A37] | 0.76 | 
CC(C)[C@H](C)NC(=O)C(C)(C)c1ccc(-c2cncc(C#N)n2)cc1 [Compound A46] | 0.31 | 
CC(C)CNC(=O)C(C)(C)c1ccc(-c2cccc(OC(C)C)c2)cc1 [Compound 18, N-isobutyl-2-(3′-isopropoxybiphenyl-4-yl)-2-methylpropanamide] |  | 4.2
CC(C)CNC(=O)C(C)(C)c1ccc(-c2cocc2/C=N/O)cc1 [Compound A71] | 0.75 | 
CSc1ccccc1-c1ccc(C(C)(C)C(=O)NCC(C)C)cc1 [Compound A14] | 9 | 
COC(=O)c1ccccc1-c1ccc(C(C)(C)C(=O)NCC(C)C)cc1 [Compound A15] | 4 | 
CC(NC(=O)C(C)(C)c1ccc(-c2cncc(C#N)n2)cc1)c1ccco1 (stereo not shown) [Compound A42] | 0.1 | 
CC(C)CNC(=O)C(C)(C)c1ccc(-c2cnc3ccccn23)cc1 [Compound A25] | 1.23 | 
CC(C)CNC(=O)C(C)(C)c1ccc(-c2ccccc2N)cc1 [Compound 13, 2-(2′-aminobiphenyl-4-yl)-N-isobutyl-2-methylpropanamide] |  | 2.2

Compound | EC50 (Table A, read-out: SWEET EC50) [µM] | EC50 [1] [µM]
CC(C)CNC(=O)C(C)(C)c1ccc(-c2cccc3c2COCOC3)cc1 [Compound A79] | 0.67 | 
CC(C)CNC(=O)C(C)(C)c1ccc(-c2ccc(C#N)o2)cc1 [Compound A63] | 1.29 | 
CC(C)CNC(=O)C(C)(C)c1ccc(-c2ccncn2)cc1 [Compound A33] | 5.4 | 
CC(NC(=O)C(C)(C)c1ccc(-c2cncc(C#N)c2)cc1)c1ccccc1 (stereo not shown) [Compound A20] | 0.71 | 
CC(C)(C(=O)NCC(O)c1ccco1)c1ccc(-c2cncc(C#N)n2)cc1 (stereo not shown) [Compound A65] | 1.31 | 
CC[C@@H](CO)NC(=O)C(C)(C)c1ccc(-c2cncc(C#N)n2)cc1 [Compound 51, (S)-2-(4-(6-cyanopyrazin-2-yl)phenyl)-N-(1-hydroxybutan-2-yl)-2-methylpropanamide] |  | 1.03
CC(C)CNC(=O)C(C)(C)c1ccc(-n2ccnc2)cc1 [Compound A34] | 10.1 | 
CCC(C)NC(=O)[C@@H](C)c1ccc(-c2ccccc2)c(F)c1 (stereo partly shown) [Compound A2] | 2.38 | 
CC(C)CNC(=O)C(C)(C)c1ccc(-c2cncc(OC(C)C)c2)cc1 [Compound A87] | 0.21 | 
CCC(CC)NC(=O)C(C)(C)c1ccc(-c2cncc(C#N)n2)cc1 [Compound A40] | 0.03 | 
CC[C@@H](C)NC(=O)C(C)(C)c1ccc(-c2cncc(C#N)c2)cc1 [Compound A85] | 0.15 | 
Cc1cccc(-c2ccc(C(C)(C)C(=O)NCC(C)C)cc2)c1 [Compound 15, N-isobutyl-2-methyl-2-(3′-methylbiphenyl-4-yl)propanamide] |  | 3
CC(C)CNC(=O)C(C)c1ccc(-c2ccccc2)cc1 (stereo not shown) [Compound A5] | 4.26 | 
CC(C)[C@@H](C)NC(=O)C(C)(C)c1ccc(-c2cncc(C#N)n2)cc1 [Compound A44] | 0.21 | 
CC(C)CNC(=O)C(C)(C)c1ccc(-c2ccncc2)cc1 [Compound A9] | 1.66 | 
CC(C)(C(=O)N[C@@H](O)c1ccccc1)c1ccc(-c2cncc(C#N)c2)cc1 [Compound A28] | 2.06 | 
CC(C)CNC(=O)C(C)(C)c1ccc(-c2cncnc2)cc1 [Compound A11] | 2.13 | 
CC(C)(C(=O)NCc1ccco1)c1ccc(-c2cncc(C#N)n2)cc1 [Compound 49, 2-(4-(6-cyanopyrazin-2-yl)phenyl)-N-(furan-2-ylmethyl)-2-methylpropanamide] |  | 0.47
COCCNC(=O)C(C)c1ccc(-c2ccccc2)c(F)c1 (stereo not shown) [Compound 5, 2-(2-fluorobiphenyl-4-yl)-N-(2-methoxyethyl)propanamide] |  | 6.5
CC(C(=O)NCc1ccco1)c1ccc(-c2ccccc2)c(F)c1 (stereo not shown) [Compound 4, 2-(2-fluorobiphenyl-4-yl)-N-(furan-2-ylmethyl)propanamide] |  | 4.55
CC(C)CNC(=O)C(C)(C)c1ccc(-c2cccc(C(=O)N(C)C)c2)cc1 [Compound 17, 2-(3′-((dimethylamino)carbonyl)biphenyl-4-yl)-N-isobutyl-2-methylpropanamide] |  | 2.7
